Test results taken from PubChem BioAssay AID1963965 (Molecular Pharmacology Branch, DTP, NCI, 2024).

Test system: 996289-038-R-J1-PDC spheroid viability
Assay: Anticancer human tumor 996289-038-R-J1-PDC patient-derived colon adenocarcinoma cell line growth inhibition [PI3K]
Conditions: spheroids with HUVEC and MSC; for IC50: curve of first compound; for viability, T/C: stronger effect = lower value
In short: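 Three cell types, namely tumor cells, endothelial cells and mesenchymal stem cells, formed each spheroid. Combinations with four PI3K inhibitors were screened at clinically achievable concentrations decreasing by half-log, and spheroid viability was recorded.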

[1] = second compound 0.00316 µM, first compound 0.0316 µM
[2] = second compound 0.00316 µM, first compound 0.1 µM
[3] = second compound 0.01 µM, first compound 0.0316 µM
[4] = second compound 0.01 µM, first compound 0.1 µM
[5] = second compound 0.0316 µM, first compound 0.0316 µM
[6] = second compound 0.0316 µM, first compound 0.1 µM
[7] = second compound 0.1 µM, first compound 0.0316 µM
[8] = second compound 0.1 µM, first compound 0.1 µM
[9] = second compound 0.316 µM, first compound 0.0316 µM
[10] = second compound 0.316 µM, first compound 0.1 µM
[11] = second compound 1 µM, first compound 0.0316 µM
[12] = second compound 1 µM, first compound 0.1 µM
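Further: spheroids exposed to compounds for seven days before viability read.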
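Wherever viability, T/C is given: luminescence used as a proxy for viable cell amount; percent viability relative to DMSO vehicle control as 100%.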

`CC(C)n1nc(-c2ccc3oc(N)nc3c2)c2c(N)ncnc21` + COc1c(OCCCN2CCOCC2)ccc2c3n(c(=NC(=O)c4cnc(N)nc4)nc12)CCN3 showed an IC50 (second compound 0.00316 µM) of 54.7 nM, an IC50 (second compound 0.01 µM) of 49.6 nM and an IC50 (second compound 0.0316 µM) of 31.6 nM. The IC50 (second compound 0.1 µM) was 7.59 nM, the IC50 (second compound 0.316 µM) was < 0.316 nM and the IC50 (second compound 1 µM) was < 0.316 nM. The viability, T/C (second compound 0.00316 µM, first compound 0.000316 µM) was 92%, the viability, T/C (second compound 0.00316 µM, first compound 0.001 µM) was 81.8% and the viability, T/C (second compound 0.00316 µM, first compound 0.00316 µM) was 83.2%. For the same molecule, the viability, T/C (second compound 0.00316 µM, first compound 0.01 µM) was 81.4%, the viability, T/C [1] was 63.5% and the viability, T/C [2] was 34.5%. For the same molecule, the viability, T/C (second compound 0.01 µM, first compound 0.000316 µM) was 92.1%, the viability, T/C (second compound 0.01 µM, first compound 0.001 µM) was 79.2% and the viability, T/C (second compound 0.01 µM, first compound 0.00316 µM) was 91.3%. For the same molecule, the viability, T/C (second compound 0.01 µM, first compound 0.01 µM) was 82.8%, the viability, T/C [3] was 65.7% and the viability, T/C [4] was 25.6%. It also gave a viability, T/C (second compound 0.0316 µM, first compound 0.000316 µM) of 69%, a viability, T/C (second compound 0.0316 µM, first compound 0.001 µM) of 73.7% and a viability, T/C (second compound 0.0316 µM, first compound 0.00316 µM) of 77.9%. It also gave a viability, T/C (second compound 0.0316 µM, first compound 0.01 µM) of 68.3%, a viability, T/C [5] of 50.2% and a viability, T/C [6] of 25.1%. The viability, T/C (second compound 0.1 µM, first compound 0.000316 µM) was 59.1%, the viability, T/C (second compound 0.1 µM, first compound 0.001 µM) was 56.6% and the viability, T/C (second compound 0.1 µM, first compound 0.00316 µM) was 54.1%. It also gave a viability, T/C (second compound 0.1 µM, first compound 0.01 µM) of 48.3%, a viability, T/C [7] of 37.8% and a viability, T/C [8] of 16.1%. It also gave a viability, T/C (second compound 0.316 µM, first compound 0.000316 µM) of 34.8%, a viability, T/C (second compound 0.316 µM, first compound 0.001 µM) of 32.9% and a viability, T/C (second compound 0.316 µM, first compound 0.00316 µM) of 29.9%. It also gave a viability, T/C (second compound 0.316 µM, first compound 0.01 µM) of 35%, a viability, T/C [9] of 24.9% and a viability, T/C [10] of 10.9%. It also gave a viability, T/C (second compound 1 µM, first compound 0.000316 µM) of 20.9%, a viability, T/C (second compound 1 µM, first compound 0.001 µM) of 16.9% and a viability, T/C (second compound 1 µM, first compound 0.00316 µM) of 16.4%. For the same molecule, the viability, T/C (second compound 1 µM, first compound 0.01 µM) was 16.6%, the viability, T/C [11] was 14.4% and the viability, T/C [12] was 10.3%.
Molecule `CC1(C)CCC(CN2CCN(c3ccc(C(=O)NS(=O)(=O)c4ccc(NCC5CCOCC5)c([N+](=O)[O-])c4)c(Oc4cnc5[nH]ccc5c4)c3)CC2)=C(c2ccc(Cl)cc2)C1` + COc1c(OCCCN2CCOCC2)ccc2c3n(c(=NC(=O)c4cnc(N)nc4)nc12)CCN3 has an IC50 (second compound 0.00316 µM) of 7540 nM, an IC50 (second compound 0.01 µM) of 7760 nM and an IC50 (second compound 0.0316 µM) of 5770 nM. The IC50 (second compound 0.1 µM) was 4200 nM, the IC50 (second compound 0.316 µM) was < 31.6 nM and the IC50 (second compound 1 µM) was < 31.6 nM. The viability, T/C [1] was 88.5%, the viability, T/C [2] was 97.1% and the viability, T/C (second compound 0.00316 µM, first compound 0.316 µM) was 94.2%. The viability, T/C (second compound 0.00316 µM, first compound 1 µM) was 110%, the viability, T/C (second compound 0.00316 µM, first compound 3.16 µM) was 106% and the viability, T/C (second compound 0.00316 µM, first compound 10 µM) was 34%. For the same molecule, the viability, T/C [3] was 95.6%, the viability, T/C [4] was 88.6% and the viability, T/C (second compound 0.01 µM, first compound 0.316 µM) was 84.2%. For the same molecule, the viability, T/C (second compound 0.01 µM, first compound 1 µM) was 97.7%, the viability, T/C (second compound 0.01 µM, first compound 3.16 µM) was 103% and the viability, T/C (second compound 0.01 µM, first compound 10 µM) was 37.6%. The viability, T/C [5] was 81.3%, the viability, T/C [6] was 84.2% and the viability, T/C (second compound 0.0316 µM, first compound 0.316 µM) was 72.9%. The viability, T/C (second compound 0.0316 µM, first compound 1 µM) was 86.1%, the viability, T/C (second compound 0.0316 µM, first compound 3.16 µM) was 90.5% and the viability, T/C (second compound 0.0316 µM, first compound 10 µM) was 19.7%. For the same molecule, the viability, T/C [7] was 65%, the viability, T/C [8] was 62.5% and the viability, T/C (second compound 0.1 µM, first compound 0.316 µM) was 62.8%. It also gave a viability, T/C (second compound 0.1 µM, first compound 1 µM) of 59.5%, a viability, T/C (second compound 0.1 µM, first compound 3.16 µM) of 65.2% and a viability, T/C (second compound 0.1 µM, first compound 10 µM) of 10.3%. For the same molecule, the viability, T/C [9] was 40.4%, the viability, T/C [10] was 36.2% and the viability, T/C (second compound 0.316 µM, first compound 0.316 µM) was 33.9%. The viability, T/C (second compound 0.316 µM, first compound 1 µM) was 36.9%, the viability, T/C (second compound 0.316 µM, first compound 3.16 µM) was 38.6% and the viability, T/C (second compound 0.316 µM, first compound 10 µM) was 11.3%. For the same molecule, the viability, T/C [11] was 19.5%, the viability, T/C [12] was 19.5% and the viability, T/C (second compound 1 µM, first compound 0.316 µM) was 21.1%. The viability, T/C (second compound 1 µM, first compound 1 µM) was 23.3%, the viability, T/C (second compound 1 µM, first compound 3.16 µM) was 18.8% and the viability, T/C (second compound 1 µM, first compound 10 µM) was 6.87%.
